Holding throughout (test): NCI anticancer screen, dose series, 48 h
The subject of assay [1] is A498.
Assay [2] deals with COLO 205.
Assay [3] deals with EKVX.
Assay [4] relates to HOP-62.
The test system of assay [5] is HOP-92.
The test system of assay [6] is HT-29.
Assay [7] concerns K562.
The test system of assay [8] is MOLT-4.
In assay [9] the test system is NCI-H460.
Assay [10] deals with OVCAR-3.
Assay [11] concerns OVCAR-8.
Assay [12] deals with RPMI-8226.
Assay [13] concerns SF-295.
Assay [14] deals with SF-539.
Assay [15] concerns SN12C.
In assay [16] the test system is UACC-62.
The test system of assay [17] is UO-31.
Assay [18] relates to HL-60.
Assay [19] deals with SNB-75.

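1) Cells in 96-well plates. 2) Compound, 48 h, 5 concentrations. 3) Linear interpolation between surrounding doses. 4) Unreached endpoint = highest concentration. Here, GI50 denotes the concentration required for 50% inhibition of growth.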 Calls of active or inactive are those of the source. Rule as the data show it: active = GI50 up to about 1.1 µM and inactive = higher. Bounds are passed on as bounds.

With `COc1ccc2c(c1)C(=O)CCc1cc(OC)c(OC)c(OC)c1-2`, the GI50 in assay [1] was 0.0504 µM (active); in [2] it was 0.0512 µM (active); in assay [3] it was 0.045 µM (active); in assay [4], 0.0662 µM (active); in assay [5], 0.135 µM (active); in [6] it was 0.0374 µM (active). Besides, the GI50 is 0.0366 µM (active) in assay [7]; 0.0564 µM (active) in assay [8]; 0.0413 µM (active) in assay [9]; 0.0409 µM (active) in assay [10]; 0.0513 µM (active) in assay [11]; 0.0631 µM (active) in assay [12]. Besides, the GI50 in [13] is 0.0384 µM (active); in assay [14], < 0.01 µM (active); in assay [15] it was 0.0649 µM (active); in [16], 0.075 µM (active); in assay [17], 0.0631 µM (active).

On to `OCCSCC(O)Cn1cnc2c(O)nc(Nc3ccccc3)nc21` (stereo unspecified), for which the GI50 in [1], in [2], in assay [3], in assay [18], in assay [4] and in [5] was > 100 µM (inactive) in each case. The GI50 in [6], in assay [8], in assay [9], in assay [10], in assay [11] and in assay [12] was > 100 µM (inactive) throughout. The GI50 in assay [13], in assay [14], in assay [15], in assay [19] and in assay [16] was > 100 µM (inactive) throughout.

Turning to `CC12N=NNC1C(=O)NC2=O` (stereo unspecified), the GI50 in [1] was 89.3 µM (inactive); in assay [2], > 100 µM (inactive); in [3] it was > 100 µM (inactive); in [18], > 100 µM (inactive); in assay [4], > 100 µM (inactive); in assay [5], > 100 µM (inactive). Further, the GI50 in [6], in assay [7], in assay [8], in assay [9], in assay [10] and in assay [11] was > 100 µM (inactive) in each case. The GI50 in [12], in assay [13], in assay [14], in assay [15], in assay [19] and in assay [16] was > 100 µM (inactive) throughout. Further, the GI50 in [17] is > 100 µM (inactive).

For the molecule `CN1C(=O)c2ccccc2OC12C=Cc1ccc(O)cc1O2` (stereo unspecified), the GI50 in assay [1] was 18.4 µM (inactive); in assay [2] it was 22.2 µM (inactive); in assay [3] it was 18.6 µM (inactive); in [18], 17.8 µM (inactive); in [4] it was 13.3 µM (inactive); in [5], 27.2 µM (inactive). Further, the GI50 was 22.3 µM (inactive) in [6]; 24.1 µM (inactive) in [7]; 16.7 µM (inactive) in assay [8]; 20 µM (inactive) in [9]; 17.1 µM (inactive) in [10]; 12.7 µM (inactive) in [11]. Further, the GI50 was 30.3 µM (inactive) in [12]; 29.9 µM (inactive) in [13]; 26.7 µM (inactive) in [15]; 22.8 µM (inactive) in assay [19]; 28.8 µM (inactive) in assay [16]; 18.7 µM (inactive) in assay [17].

(Values after ChEMBL document CHEMBL1201862, “PubChem BioAssay data set” (2004).)
